Measured values published in ChEMBL document CHEMBL1255519, “The synthesis of paleic acid, an antimicrobial agent effective against Mannheimia and Pasteurella, and its structurally related derivatives” (2010).
In brackets after ≈: the same amount, converted by molar mass.

Key:
Type in all cases: functional
[1] = system: Actinobacillus pleuropneumoniae; assay: Antimicrobial activity against Actinobacillus pleuropneumoniae NB001 after 17 hrs by serial agar dilution method
[2] = system: Mannheimia haemolytica; assay: Antimicrobial activity against Mannheimia haemolytica S801 after 17 hrs by serial agar dilution method
[3] = system: Histophilus somni; assay: Antimicrobial activity against Histophilus somni 23N2359 after 17 hrs by serial agar dilution method; conditions: 23N2359, 17 h
[4] = system: Pasteurella multocida; assay: Antimicrobial activity against Pasteurella multocida Kobe after 17 hrs by serial agar dilution method
[5] = system: Mannheimia haemolytica; assay: Antimicrobial activity against Mannheimia haemolytica N811 after 17 hrs by serial agar dilution method
[6] = system: Mannheimia haemolytica; assay: Antimicrobial activity against Mannheimia haemolytica N791 after 17 hrs by serial agar dilution method; conditions: N791, 17 h
[7] = system: Pasteurella multocida; assay: Antimicrobial activity against Pasteurella multocida TS-8 after 17 hrs by serial agar dilution method
[8] = system: Pasteurella multocida; assay: Antimicrobial activity against Pasteurella multocida M-17 after 17 hrs by serial agar dilution method; conditions: M-17, 17 h
[9] = system: Pasteurella multocida; assay: Antimicrobial activity against Pasteurella multocida isolate 6 after 17 hrs by serial agar dilution method
[10] = Actinobacillus pleuropneumoniae, NB001, 17 h, read-out: MIC
[11] = Mannheimia haemolytica, S801, 17 h, read-out: MIC
[12] = Mannheimia haemolytica, N811, 17 h, read-out: MIC
[13] = Pasteurella multocida, TS-8, 17 h, read-out: MIC
[14] = Pasteurella multocida, isolate 6, 17 h, read-out: MIC

| SMILES | MIC [1, 10] | MIC [3] | MIC [4] | MIC [7, 13] | MIC [8] | MIC [9, 14] | MIC [1] | MIC [7] | MIC [9] | MIC [2, 11] | MIC [5, 12] | MIC [6] | MIC [2] | MIC [5] |
| --- | --- | --- | --- | --- | --- | --- | --- | --- | --- | --- | --- | --- | --- | --- |
| CC[C@@H](O)CCCCC/C=C\CCCCCCCC(=O)NS(C)(=O)=O | > 50 µg/mL | > 50 µg/mL | > 50 µg/mL | 25 µg/mL (≈ 66.6 µM) | > 50 µg/mL | 50 µg/mL (≈ 133 µM) | – | – | – | 25 µg/mL (≈ 66.6 µM) | 50 µg/mL (≈ 133 µM) | 50 µg/mL (≈ 133 µM) | – | – |
| CC[C@@H](O)CCCCC/C=C\CCCCCCCC(=O)NO | 50 µg/mL (≈ 159 µM) | > 50 µg/mL | > 50 µg/mL | 50 µg/mL (≈ 159 µM) | > 50 µg/mL | 12.5 µg/mL (≈ 39.9 µM) | – | – | – | 50 µg/mL (≈ 159 µM) | 25 µg/mL (≈ 79.7 µM) | 25 µg/mL (≈ 79.7 µM) | – | – |
| CC[C@@H](O)CCCCC/C=C\CCCCCCCc1nnn[nH]1 | 50 µg/mL (≈ 155 µM) | 50 µg/mL (≈ 155 µM) | 50 µg/mL (≈ 155 µM) | 50 µg/mL (≈ 155 µM) | 50 µg/mL (≈ 155 µM) | 50 µg/mL (≈ 155 µM) | – | – | – | 50 µg/mL (≈ 155 µM) | 50 µg/mL (≈ 155 µM) | 50 µg/mL (≈ 155 µM) | – | – |
| CCC1(CCCCC/C=C\CCCCCCCC(=O)O)OCCO1 | > 100 µg/mL | > 50 µg/mL | 50 µg/mL (≈ 147 µM) | 25 µg/mL (≈ 73.4 µM) | > 50 µg/mL | > 50 µg/mL | – | – | – | 25 µg/mL (≈ 73.4 µM) | 25 µg/mL (≈ 73.4 µM) | 25 µg/mL (≈ 73.4 µM) | – | – |
| CC[C@@H](O)CCCCC/C=C\CCCCCCCC(N)=O | > 50 µg/mL | > 50 µg/mL | > 50 µg/mL | 50 µg/mL (≈ 168 µM) | > 50 µg/mL | > 50 µg/mL | – | – | – | 50 µg/mL (≈ 168 µM) | 12.5 µg/mL (≈ 42 µM) | 25 µg/mL (≈ 84 µM) | – | – |

Now from value to compound, other results behind:

| MIC [1, 10] | MIC [3] | MIC [4] | MIC [7, 13] | MIC [8] | MIC [9, 14] | MIC [1] | MIC [7] | MIC [9] | SMILES | MIC [2, 11] | MIC [5, 12] | MIC [6] | MIC [2] | MIC [5] |
| --- | --- | --- | --- | --- | --- | --- | --- | --- | --- | --- | --- | --- | --- | --- |
| 6.25 µg/mL (≈ 21.1 µM) | > 50 µg/mL | > 50 µg/mL | 50 µg/mL (≈ 169 µM) | > 50 µg/mL | 50 µg/mL (≈ 169 µM) | – | – | – | CCC(=O)CCCCC/C=C\CCCCCCCC(=O)O | 6.25 µg/mL (≈ 21.1 µM) | 6.25 µg/mL (≈ 21.1 µM) | 3.13 µg/mL (≈ 10.6 µM) | – | – |
| – | – | – | – | – | – | 6.25 µg/mL (≈ 20.9 µM) | 6.25 µg/mL (≈ 20.9 µM) | 12.5 µg/mL (≈ 41.9 µM) | CC[C@@H](O)CCCCC/C=C\CCCCCCCC(=O)O (stereo in doubt; 2) [PALEIC ACID] | – | – | – | 0.78 µg/mL (≈ 2.61 µM) | 0.78 µg/mL (≈ 2.61 µM) |
| 6.25 µg/mL (≈ 20.9 µM) | > 50 µg/mL | > 50 µg/mL | 3.13 µg/mL (≈ 10.5 µM) | > 50 µg/mL | 6.25 µg/mL (≈ 20.9 µM) | – | – | – | CC[C@@H](O)CCCCC/C=C\CCCCCCCC(=O)O (stereo in doubt; 1) [PALEIC ACID] | 1.56 µg/mL (≈ 5.23 µM) | 1.56 µg/mL (≈ 5.23 µM) | 0.78 µg/mL (≈ 2.61 µM) | – | – |
| 6.25 µg/mL (≈ 20.1 µM) | > 50 µg/mL | > 50 µg/mL | 25 µg/mL (≈ 80.3 µM) | > 50 µg/mL | 3.13 µg/mL (≈ 10 µM) | – | – | – | CC/C(CCCCC/C=C\CCCCCCCC(=O)O)=N/O | 1.56 µg/mL (≈ 5.01 µM) | 1.56 µg/mL (≈ 5.01 µM) | 1.56 µg/mL (≈ 5.01 µM) | – | – |
| 12.5 µg/mL (≈ 41.9 µM) | > 50 µg/mL | > 50 µg/mL | 6.25 µg/mL (≈ 20.9 µM) | > 50 µg/mL | 50 µg/mL (≈ 168 µM) | – | – | – | CC[C@H](O)CCCCC/C=C\CCCCCCCC(=O)O | 0.39 µg/mL (≈ 1.31 µM) | 0.78 µg/mL (≈ 2.61 µM) | 0.78 µg/mL (≈ 2.61 µM) | – | – |
